Results: patent publication US20240368096A1 (Enanta Pharmaceuticals, Inc., priority 2022, published 2024)

tested on: HBV; test: HBV infection in HepG2-NTCP cells (HBeAg AlphaLISA in supernatants); assay type: cell-based; details: Hepatitis B virus, 192 h; HBV infection of HepG2-NTCP cells; HBeAg in supernatants at day 8 post infection; read-out: Cellular EC50
Outline: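 Readout was day-8 supernatant HBeAg by AlphaLISA, with EC50 set against DMSO controls and binned A<0.1 μM, B 0.1-1 μM, C>1 μM. Compounds were added 2 h before HBV (2000 GE/cell, 4% PEG, 0.5% DMSO) to HepG2-NTCP A3 cells; from day 1 medium held 2.5% DMSO.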

EC50, > 1000 nM:
CN1[C@H](C2CCCCC2)CN(c2ccccc2)c2cc(Cl)c(-c3cncc(C(=O)O)c3)cc2S1(=O)=O [Example 136, (R)-5-(7-chloro-3-cyclohexyl-2-methyl-1,1-dioxido-5-phenyl-2,3,4,5-tetrahydrobenzo[f][1,2,5]thiadiazepin-8-yl)nicotinic acid]
CC(C)C[C@@H]1CN(c2ccccc2)c2cc(Cl)c(-c3cccc(/C=C/C(=O)O)c3)cc2S(=O)(=O)N1C [Example 171]
CN1[C@@H](CC2CC2)CN(c2ccccc2)c2cc(Cl)c(-c3cccc(C(=O)O)c3)cc2S1(=O)=O [Example 41]
CN1[C@H](C2CCCCC2)CN(c2ccccc2)c2cc(Cl)c(-c3cccc(S(N)(=O)=O)c3)cc2S1(=O)=O [Example 175]
CN1[C@H](C2CCCCC2)CN(c2ccccc2)c2cc(Cl)c(-c3ccc4c(c3)C(=O)NC4=O)cc2S1(=O)=O [Example 197]
CO[C@@H](C)[C@@H]1CN(c2ccccc2)c2cc(Cl)c(-c3ccc(F)c(C(=O)O)c3)cc2S(=O)(=O)N1C [Example 88, 5-((S)-7-chloro-3-((S)-1-methoxyethyl)-2-methyl-1,1-dioxido-5-phenyl-2,3,4,5-tetrahydrobenzo[f][1,2,5]thiadiazepin-8-yl)-2-fluorobenzoic acid]
CSc1cc2c(cc1-c1cccc(C(=O)O)c1)S(=O)(=O)N1Cc3ccccc3C1CN2c1ccccc1 (centres unmarked) [Example 22]

EC50, 100 to 1000 nM:
CC(C)C[C@@H]1CN(c2ccccc2)c2cc(Cl)c(-c3ccc(C#N)c(C(=O)O)c3)cc2S(=O)(=O)N1C [Example 187]
CN1[C@H](C2CCCCC2)CN(c2ccccc2)c2cc(Cl)c(-c3cccc(P(=O)(O)O)c3)cc2S1(=O)=O [Example 232, (R)-(3-(7-chloro-3-cyclohexyl-2-methyl-1,1-dioxido-5-phenyl-2,3,4,5-tetrahydrobenzo[f][1,2,5]thiadiazepin-8-yl)phenyl)phosphonic acid]
Cc1cc(COc2cc3c(cc2-c2cc(F)c(C(=O)O)s2)S(=O)(=O)N(C)[C@H](C2CCCCC2)CN3c2ccccc2)cs1 [Example 493]
CN1[C@H](C2CCCCC2)CN(c2ccccc2)c2cc(Cl)c(-c3cccc(C(=O)O)n3)cc2S1(=O)=O [Example 138, (R)-6-(7-chloro-3-cyclohexyl-2-methyl-1,1-dioxido-5-phenyl-2,3,4,5-tetrahydrobenzo[f][1,2,5]thiadiazepin-8-yl)picolinic acid]
COCOC[C@@H]1CN(c2ccccc2)c2cc(Cl)c(-c3ccc(F)c(C(=O)O)c3)cc2S(=O)(=O)N1C [Example 97, (S)-5-(7-chloro-3-((methoxymethoxy)methyl)-2-methyl-1,1-dioxido-5-phenyl-2,3,4,5-tetrahydrobenzo[f][1,2,5]thiadiazepin-8-yl)-2-fluorobenzoic acid]
CC(C)C[C@@H]1CN(c2ccccc2)c2cc(Nc3ccc(F)cc3)c(-c3ccc(Cl)c(C(=O)O)c3)cc2S(=O)(=O)N1C [Example 548]
CN1[C@H](C2CCCCC2)CN(c2cnccn2)c2cc(Cl)c(-c3ccc(F)c(C(=O)O)c3)cc2S1(=O)=O [Example 289]
CN1[C@H](C2CCCCC2)CN(c2ccccc2)c2cc(C3CCN(C(=O)OC(C)(C)C)CC3)c(-c3ccc(F)c(C(=O)O)c3)cc2S1(=O)=O [Example 590]
CN1[C@H](C2CCCCC2)CN(c2ccccc2)c2cc(OC[C@@H]3CCCN(C(=O)OC(C)(C)C)C3)c(-c3ccc(F)c(C(=O)O)c3)cc2S1(=O)=O [Example 369]
CN1[C@H](C2CCCCC2)CN(c2ccccc2)c2cc(N3CCN(S(C)(=O)=O)CC3)c(-c3ccc(F)c(C(=O)O)c3)cc2S1(=O)=O [Example 536]
CN1[C@H](C2CCCC2)CN(c2ccccc2)c2cc(Cl)c(-c3ccc(F)c(C(=O)O)c3)cc2S1(=O)=O [Example 66]
CC(C)C[C@@H]1CN(c2ccccc2)c2cc(Cl)c(-c3ccc4oncc4c3)cc2S(=O)(=O)N1C [Example 185]
COC(=O)c1noc2ccc(-c3cc4c(cc3Cl)N(c3ccccc3)C[C@@H](CC(C)C)N(C)S4(=O)=O)cc12 [Example 182]
CC(C)C[C@@H]1CN(C2CC(F)(F)C2)c2cc(Oc3ccccc3F)c(-c3ccc(F)c(C(=O)O)c3)cc2S(=O)(=O)N1C [Example 466, (R)-5-(5-(3,3-difluorocyclobutyl)-7-(2-fluorophenoxy)-3-isobutyl-2-methyl-1,1-dioxido-2,3,4,5-tetrahydrobenzo[f][1,2,5]thiadiazepin-8-yl)-2-fluorobenzoic acid]
CN1[C@H](C2CCCCC2)CN(c2ccccc2)c2cc(Cl)c(-c3nc(C(=O)O)co3)cc2S1(=O)=O [Example 131, (R)-2-(7-chloro-3-cyclohexyl-2-methyl-1,1-dioxido-5-phenyl-2,3,4,5-tetrahydrobenzo[f][1,2,5]thiadiazepin-8-yl)oxazole-4-carboxylic acid]
CCO[C@@H](C)[C@@H]1CN(c2ccccc2)c2cc(Cl)c(-c3ccc(F)c(C(=O)O)c3)cc2S(=O)(=O)N1C [Example 89]
CCC1CN(c2ccccc2)c2cc(Cl)c(-c3ccc(Cl)c(C(=O)O)c3)cc2S(=O)(=O)N1C (centres unmarked) [Example 46]
Cc1sc(-c2cc3c(cc2Cl)N(c2ccccc2)C[C@@H](C2CCCCC2)N(C)S3(=O)=O)nc1C(=O)O [Example 125]

EC50, < 100 nM:
CN1[C@H](C2CCCCC2)CN(c2ccccc2)c2cc(Cl)c(-c3ccc([N+](=O)[O-])c(C(=O)O)c3)cc2S1(=O)=O [Example 189, (R)-5-(7-chloro-3-cyclohexyl-2-methyl-1,1-dioxido-5-phenyl-2,3,4,5-tetrahydrobenzo[f][1,2,5]thiadiazepin-8-yl)-2-nitrobenzoic acid]
CCOc1cc2c(cc1-c1ccc(F)c(C(=O)O)c1)S(=O)(=O)N(C)[C@H](C1CCCCC1)CN2c1ccccc1 [Example 349]
CN1[C@H](C2CCCCC2)CN(c2ccccc2)c2cc(OCCOC(C)(C)C)c(-c3cc(F)c(C(=O)O)s3)cc2S1(=O)=O [Example 495]
CN1[C@H](C2CCCCC2)CN(c2ccccc2)c2cc(OCCOC3CC3)c(-c3cc(F)c(C(=O)O)s3)cc2S1(=O)=O [Example 496]
CC(C)C[C@@H]1CN(c2ccccc2)c2cc(Cl)c(-c3ccc([N+](=O)[O-])c(C(=O)O)c3)cc2S(=O)(=O)N1C [Example 183]
CC(C)CCOc1cc2c(cc1-c1ccc(F)c(C(=O)O)c1)S(=O)(=O)N(C)[C@H](C1CCCCC1)CN2c1ccccc1 [Example 359]
CC[C@@H](C)[C@@H]1CN(c2ccccc2)c2cc(Cl)c(-c3ccc(F)c(C(=O)O)c3)cc2S(=O)(=O)N1C [Example 68]
COCCOc1cccc(N2C[C@@H](C3CCCCC3)N(C)S(=O)(=O)c3cc(-c4ccc(F)c(C(=O)O)c4)c(Cl)cc32)c1 [Example 312]
CN1[C@H](C2CCC2)CN(c2ccccc2)c2cc(Cl)c(-c3cccc(C(=O)C(=O)O)c3)cc2S1(=O)=O [Example 206]
CN1[C@H](C2CCCCC2)CN(c2ccccc2)c2cc(OCc3cccs3)c(-c3ccc(F)c(C(=O)O)c3)cc2S1(=O)=O [Example 335]
CN1[C@H](C2CCCCC2)CN(c2ccccc2)c2cc(OCc3cscc3F)c(-c3cc(F)c(C(=O)O)s3)cc2S1(=O)=O [Example 488]
CN1[C@H](C2CCCCC2)CN(c2ccccc2)c2cc(OCc3ncco3)c(-c3ccc(F)c(C(=O)O)c3)cc2S1(=O)=O [Example 344]
CC(=O)Nc1ccc(-c2cc3c(cc2Cl)N(c2ccccc2)C[C@@H](C2CCCCC2)N(C)S3(=O)=O)cc1C(=O)O [Example 229]
COc1cccc(Oc2cc3c(cc2-c2ccc(F)c(C(=O)O)c2)S(=O)(=O)N(C)[C@H](CC(C)C)CN3c2ccccc2)c1 [Example 427]
Cc1cc(-c2cc3c(cc2OC2CCC2)N(c2ccccc2)C[C@@H](C2CCCCC2)N(C)S3(=O)=O)sc1C(=O)O [Example 513, (R)-5-(7-cyclobutoxy-3-cyclohexyl-2-methyl-1,1-dioxido-5-phenyl-2,3,4,5-tetrahydrobenzo[f][1,2,5]thiadiazepin-8-yl)-3-methylthiophene-2-carboxylic acid]
CN1[C@H](C2CCCCC2)CN(c2ccccc2)c2cc(O[C@H]3C[C@H](F)C3)c(-c3ccc(F)c(C(=O)O)c3)cc2S1(=O)=O [Example 381]
CN1[C@H](C2CCCCC2)CN(c2ccnc(F)c2)c2cc(Cl)c(-c3ccc(F)c(C(=O)O)c3)cc2S1(=O)=O [Example 284]
CN1[C@H](C2CCCCC2)CN(c2ccccc2)c2cc(OCc3ccsc3Cl)c(-c3cc(F)c(C(=O)O)s3)cc2S1(=O)=O [Example 489]
CC(C)C[C@@H]1CN(c2ccccc2)c2cc(Cl)c(-c3ccc(OC(F)(F)F)c(C(=O)O)c3)cc2S(=O)(=O)N1C [Example 163, (R)-5-(7-chloro-3-isobutyl-2-methyl-1,1-dioxido-5-phenyl-2,3,4,5-tetrahydrobenzo[f][1,2,5]thiadiazepin-8-yl)-2-(trifluoromethoxy)benzoic acid]
CN1[C@H](C2CCCCC2)CN(c2ccccc2)c2cc(Cl)c(-c3cc(NC(=O)OCC(C)(C)C)c(C(=O)O)s3)cc2S1(=O)=O [Example 255]
COCCOc1cc2c(cc1-c1cc(C)c(C(=O)O)s1)S(=O)(=O)N(C)[C@H](C1CCCCC1)CN2c1ccccc1 [Example 499]
CCOc1cccc(N2C[C@@H](C3CCCCC3)N(C)S(=O)(=O)c3cc(-c4ccc(F)c(C(=O)O)c4)c(Cl)cc32)c1 [Example 308]
